Test results reported in patent EP0083750A1, “Antimycotic azolyl butanols” (BAYER AG, priority 1981, dated 1983).
In brackets after ≈: the same amount, converted by molar mass.

Legend:
Candida-Zellen = assay: Antimycotic in-vivo activity (oral) in mouse candidosis; set-up: species or system Mäuse vom Typ SPF-CF1; key to Wirkung (Überlebende am 6.Tag p.i.): +++++: = sehr gute Wirkung = 90 % Überlebende am 6.Tag p.i.; ++++: = gute Wirkung = 80 % Überlebende am 6.Tag p.i.; +++: = Wirkung = 60 % Überlebende am 6.Tag p.i.; ++: = schwache Wirkung = 40 % Überlebende am 6.Tag p.i.; +: = Spur Wirkung = unter 40 % Überlebende am 6. Tag; k.W.: = keine Wirkung; conditions: for Wirkung (Überlebende am 6.Tag p.i.): Mäuse SPF-CF1, intravenös infiziert mit 1 - 2 x 10^6 Candida-Zellen, jeweils 50 - 100 mg/kg oral, 1 Stunde vor und 7 Stunden nach Infektion; for Wirkung im Vergleich zu den bekannten Verbindungen (A) und (B): Mäusecandidose, oral
Description: Antimykotische in-vivo-Wirksamkeit (oral) bei Mäusecandidose
Mäuse vom Typ SPF-CF1 wurden intravenös mit 1 - 2 x 10^6 logarithmisch wachsenden Candida-Zellen, die in physiologischer Kochsalzlösung suspendiert werden, infiziert. Eine Stunde vor und sieben Stunden nach der Infektion werden die Tiere mit jeweils 50 - 100 mg/kg Körpergewicht der Präparate oral behandelt.
Unbehandelte Tiere starben 3 bis 6 Tage post infektionem. Die Überlebensrate am 6. Tag post infektionem betrug bei unbehandelten Kontrolltieren etwa 5 %.

[1] = tested on: Trichophyton von mentagrophytes; assay: Antimycotic in-vivo activity (local) in experimental guinea pig trichophytosis; conditions: Meerschweinchen-Trichophytie, lokal
Excerpt: Antimikrobielle in-vivo-Wirksamkeit (lokal) am Modell der experimentellen Meerschweinchen-Trichophytie
Weiße Mäuse der Rasse Pirbright-white wurden auf dem geschorenen, nicht skarifizierten Rücken mit einer Mikro-und Makrokonidien-Suspension von Trichophyton von mentagrophytes infiziert.
Die infizierten Tieren wurden, beginnend mit dem 3. Tag p.i., 1 x täglich mit einer 15%-igen Lösung der erfindungsgemäßen Präparate (in Dimethylsulfoxid : Glycerin = 1 : 4) lokal behandelt.
Bei unbehandelten Tieren entwickelte sich innerhalb 12 Tagen p.i. das typische Bild einer Dermatophytose mit Rötung, Schuppung und Haarausfall bis zum totalen Integument-Defekt an der Infektionsstelle.

Aspergillus fumig. = assay: Antimycotic in-vitro activity, serial dilution test (MIC); format: cell-based; conditions: 96 h, Reihenverdünnungstest, 5 x 10^4 Keimen/ml Substrat, Sabourand's milieu d'epreuve, 20°C, 96 Stunden, read-out: MHK-Werte in γ/ml Nährmedium, Aspergillus fumig.
Description: (§1) Versuchsbeschreibung: • Die in-vitro-Prüfungen wurden im Reihenverdünnungstest mit Keiminokula von durchschnittlich 5 x 10^4 Keimen/ml Substrat durchgeführt. Als Nährmedium dienten • a) für Dermatophyten und Schimmelpilze: Sabourand's milieu d'epreuve • b) für Hefen: • Fleischextrakt-Traubenzucker-Bouillon.
(§2) Die Bebrütungstemperatur betrug 20°C, die Bebrütungsdauer lag bei 24 bis 96 Stunden bei Hefen und 96 Stunden bei Dermatophyten und Schimmelpilzen.

Microsporum canis = assay: as above; format: cell-based; conditions: 96 h, Reihenverdünnungstest, 5 x 10^4 Keimen/ml Substrat, Sabourand's milieu d'epreuve, 20°C, 96 Stunden, read-out: MHK-Werte in γ/ml Nährmedium, Microsporum canis
Description: as §1, §2

Candida albicans = assay: as above; format: cell-based; conditions: Reihenverdünnungstest, 5 x 10^4 Keimen/ml Substrat, Fleischextrakt-Traubenzucker-Bouillon, 20°C, 24 bis 96 Stunden, read-out: MHK-Werte in γ/ml Nährmedium, Candida albicans
Description: as §1, §2

Trichophyton mentagr. = assay: as above; format: cell-based; conditions: 96 h, Reihenverdünnungstest, 5 x 10^4 Keimen/ml Substrat, Sabourand's milieu d'epreuve, 20°C, 96 Stunden, read-out: MHK-Werte in γ/ml Nährmedium, Trichophyton mentagr.
Description: as §1, §2

Torulopsis glabrata = assay: as above; format: cell-based; conditions: Nakaseomyces glabratus; Reihenverdünnungstest, 5 x 10^4 Keimen/ml Substrat, Fleischextrakt-Traubenzucker-Bouillon, 20°C, 24 bis 96 Stunden; read-out: MHK-Werte in γ/ml Nährmedium, Torulopsis glabrata
Description: as §1, §2

[2] = tested on: Dermatophyten, Schimmelpilze, Hefen; assay: Antimycotic in-vitro activity, serial dilution test, overall comparison with prior art; format: cell-based; conditions: in-vitro Reihenverdünnungstest
Description: as §1, §2

Compound | Wirkung (Überlebende am 6.Tag p.i.) (Candida-Zellen) | Wirkung im Vergleich zu den bekannten Verbindungen (A) und (B) (Candida-Zellen) | Wirkung [1] | MIC (Aspergillus fumig.) [µg/mL] | MIC (Microsporum canis) [µg/mL] | MIC (Candida albicans) [µg/mL] | MIC (Trichophyton mentagr.) [µg/mL] | MIC (Torulopsis glabrata) [µg/mL] | antimykotische Wirkung im Vergleich zu den bekannten Verbindungen (A) und (B) [2]
CC(C)(COc1ccc(Cl)cc1)C(O)C(CC1CCCCC1)n1ccnc1 (centres unmarked) [Beispiel 20] | ++++ (= gute Wirkung = 80 % Überlebende am 6.Tag p.i.) | bessere Wirkung | gute bis sehr gute Wirkung | 4 (≈ 10.2 µM) | 4 (≈ 10.2 µM) | < 1 | < 1 | 8 (≈ 20.5 µM) | bessere antimykotische Wirkung
OC(Cn1cncn1)c1ccc(-c2ccc(Cl)cc2)cc1 (centres unmarked) [(B), reference compound] | k.W. |  |  | > 64 | > 64 | > 64 | 4 (≈ 13.3 µM) |  | 
CCCCC(C(O)C(C)(C)COc1ccc(-c2ccccc2)cc1)n1cncn1 (centres unmarked) [Beispiel 100] | +++ (= Wirkung = 60 % Überlebende am 6.Tag p.i.) | bessere Wirkung |  | 4 (≈ 10.2 µM) | 8 (≈ 20.3 µM) | 8 (≈ 20.3 µM) | < 1 | 32 (≈ 81.3 µM) | bessere antimykotische Wirkung
COc1cccc(CC(C(O)C(C)(C)COc2ccc(Cl)cc2)n2cncn2)c1 (centres unmarked) [Beispiel 87] | ++ (= schwache Wirkung = 40 % Überlebende am 6.Tag p.i.) | bessere Wirkung |  | 16 (≈ 38.5 µM) | 8 (≈ 19.2 µM) | < 1 | < 1 | 2 (≈ 4.81 µM) | bessere antimykotische Wirkung
CC(C)(Cc1ccc(Cl)cc1)C(O)C(Cc1ccccc1)n1ccnc1 (centres unmarked) [Beispiel 128] | ++++ (= gute Wirkung = 80 % Überlebende am 6.Tag p.i.) | bessere Wirkung |  | 8 (≈ 21.7 µM) | 16 (≈ 43.4 µM) | < 1 | < 1 | 8 (≈ 21.7 µM) | bessere antimykotische Wirkung
CC(C(O)c1ccc(Cl)cc1)n1cncn1 (centres unmarked) [(A), reference compound] | k.W. |  |  |  |  | > 64 | > 64 |  | 
CCCCC(C(O)C(C)(C)Oc1ccc(Cl)cc1Cl)n1cncn1 (centres unmarked) [Beispiel 51] |  |  |  | 8 (≈ 21.5 µM) | 2 (≈ 5.37 µM) | 2 (≈ 5.37 µM) | < 1 | 8 (≈ 21.5 µM) | bessere antimykotische Wirkung
CC(C)(COc1ccc(-c2ccccc2)cc1)C(O)Cn1ccnc1 (centres unmarked) [Beispiel 96] |  |  |  | 64 (≈ 190 µM) | < 1 | < 1 | < 1 | 16 (≈ 47.6 µM) | bessere antimykotische Wirkung
CCOC(=O)c1ccc(OC(C)(C)C(O)C(Cc2ccc(Cl)cc2Cl)n2cncn2)cc1 (centres unmarked) [Beispiel 64] |  |  |  | 64 (≈ 134 µM) | 2 (≈ 4.18 µM) | < 1 | 4 (≈ 8.36 µM) | 64 (≈ 134 µM) | bessere antimykotische Wirkung
CC(C)(COc1ccc(Cl)cc1)C(O)C(Cc1ccc(Cl)cc1Cl)n1cncn1 (centres unmarked) [Beispiel 11] | ++ (= schwache Wirkung = 40 % Überlebende am 6.Tag p.i.) | bessere Wirkung | gute bis sehr gute Wirkung | 64 (≈ 141 µM) | < 1 | < 1 | < 1 | < 1 | bessere antimykotische Wirkung
COCC(C)(C)C(O)C(Cc1ccc(Cl)cc1)n1cncn1 (centres unmarked) [Beispiel 9] |  |  |  | 16 (≈ 49.4 µM) | 4 (≈ 12.4 µM) | 8 (≈ 24.7 µM) | 4 (≈ 12.4 µM) | 32 (≈ 98.8 µM) | bessere antimykotische Wirkung
CCC(C(O)C(C)(C)Oc1ccc(Cl)cc1)n1cncn1 (centres unmarked) [Beispiel 57] |  |  |  | 32 (≈ 103 µM) | 8 (≈ 25.8 µM) | 8 (≈ 25.8 µM) | 8 (≈ 25.8 µM) | 32 (≈ 103 µM) | bessere antimykotische Wirkung
C=CCC(C(O)C(C)(C)Oc1ccc(Cl)cc1Cl)n1ccnc1 (centres unmarked) [Beispiel 66] |  |  |  | 16 (≈ 45 µM) | 8 (≈ 22.5 µM) | < 1 | 4 (≈ 11.3 µM) | 4 (≈ 11.3 µM) | bessere antimykotische Wirkung
C=CCC(C(O)C(C)(C)Oc1ccc(Cl)cc1)n1cncn1 (centres unmarked) [Beispiel 56] |  |  |  | 8 (≈ 24.9 µM) | 4 (≈ 12.4 µM) | 4 (≈ 12.4 µM) | 8 (≈ 24.9 µM) | 8 (≈ 24.9 µM) | bessere antimykotische Wirkung
CC(C)(Oc1ccc(Cl)cc1)C(O)C(CC1CCCCC1)n1cncn1 (centres unmarked) [Beispiel 31] |  |  |  | 8 (≈ 21.2 µM) | 32 (≈ 84.7 µM) | < 1 | 2 (≈ 5.29 µM) | 4 (≈ 10.6 µM) | bessere antimykotische Wirkung
CCCCC(C(O)C(C)(C)Oc1ccc(Cl)cc1)n1cncn1 (centres unmarked) [Beispiel 52] |  |  |  | 16 (≈ 47.4 µM) | 2 (≈ 5.92 µM) | < 1 | 2 (≈ 5.92 µM) | 4 (≈ 11.8 µM) | bessere antimykotische Wirkung
CCOCC(C)(C)C(O)C(Cc1ccc(Cl)cc1Cl)n1cncn1 (centres unmarked) [Beispiel 85] |  |  |  | 16 (≈ 43 µM) | 8 (≈ 21.5 µM) | < 1 | 4 (≈ 10.7 µM) | 4 (≈ 10.7 µM) | bessere antimykotische Wirkung
CC(C)(Oc1ccc(Cl)cc1)C(O)C(Cc1ccc(Cl)cc1Cl)n1cncn1 (centres unmarked) [Beispiel 27] |  |  |  | > 64 | 4 (≈ 9.08 µM) | < 1 | < 1 | < 1 | bessere antimykotische Wirkung
CC(C)(Cc1ccccc1)C(O)C(Cc1ccc(Cl)cc1Cl)n1cncn1 (centres unmarked) [Beispiel 83] |  |  |  | 32 (≈ 79.1 µM) | 8 (≈ 19.8 µM) | < 1 | < 1 | 4 (≈ 9.89 µM) | bessere antimykotische Wirkung
